The values below come from patent US8168647B2, “Vinblastine derivatives, their preparation, use and pharmaceutical compositions comprising the said derivatives” (Shanghai Institute of Materia Medica Chinese Academy of …, priority 2007, dated 2012).

Counter-ions that a name gives are not always drawn. Like-named read-outs stand apart in the source and are kept apart here. Marks after values point to notes of the source that are not given here.

The conditions of series [1]: depending on its concentration and action time; read-out: IC50, in vitro activity; cited from earlier work.
Another series has as its system sarcoma 180. The experiment in a line: In vivo antitumor assay on Sarcoma 180 (S180) in mice.
For series [2], the system named is human cervical carcinoma cell line Hela. The experiment in a line: In vitro cytotoxicity assay, Sulforhodamine B (SRB), Hela. Format: cell-based. As to conditions: Homo sapiens, HeLa.
The subject of series [3] is human non-small cell lung cancer (A549) xenografts. The experiment in a line: Nude mice models bearing human non-small cell lung cancer (A549) xenografts. To be noted: for efficacy against A549 xenografts (in words) / toxicity in the mice (in words): iv. In general terms: Xenograft models place foreign cells or tissue in a host animal.
Series [4] has as its system human non-small cell lung cancer cell line A-549. The experiment in a line: In vitro cytotoxicity assay, Sulforhodamine B (SRB), A-549. Format: cell-based. As to conditions: for IC50: Homo sapiens.
The subject of series [5] is human non-small cell lung cancer (A549) xenografts. As to conditions: mouse, in vivo.
The mark [6] stands for this setting: 1.5 mg/kg iv once at d0, dn: 12 days after the first administration.
Where [7] appears, read: 3 mg/kg iv once at d0, dn: 12 days after the first administration.
Setting [8] is: 6 mg/kg iv once at d0, dn: 12 days after the first administration.
Setting [9] is: BM48 tartrate once at d0, vinorelbine tartrate twice at d0 and d4.

A word on the IC50: it is the concentration needed to halve the response being measured. On to `CC[C@]12C=CCN3CC[C@@]4(c5cc([C@@]6(C(=O)OC)C[C@@H]7C[C@@H](C(C)(F)F)CN(Cc8c6[nH]c6ccccc86)C7)c(OC)cc5N(C)[C@H]4[C@@](O)(C(=O)OC)[C@@H]1OC(C)=O)[C@@H]32` [Vinflunine, reference compound], for which, in series [1], the IC50 was 60 to 300 nM. In the series on sarcoma 180 (40 mg/kg, iv, d 1, 4), the “Average weight (g) At sacrifice” value is reported as 28.4 g and the “Tumor Weight (g) X ± SD” value turned out to be 0.44 ± 0.13 g. The inhibition in vivo at 40 mg/kg in the series with sarcoma 180 (Mus musculus, Sarcoma-180, iv, read-out: Inhibition rate %, 40 mg/kg, iv, d 1, 4) was found to be 72.5%.
As to `CCC1=C[C@@H]2CN(CCc3c([nH]c4ccccc34)[C@@](C(=O)OC)(c3cc4c(cc3OC)N(C)[C@H]3C(O)(CNC(=O)OC)[C@H](OC(C)=O)[C@]5(CC)C=CCN6CC[C@]43[C@@H]65)C2)C1` (stereo partly drawn) [BM48], the “Average weight (g) At sacrifice” value in the series with sarcoma 180 (10 mg/kg, iv, d 1, 4) came out at 27.1 g; with sarcoma 180 (20 mg/kg, iv d 1), 24.2 g. The “Tumor Weight (g) X ± SD” value is given as 0.85 ± 0.11 g in the series with sarcoma 180 (10 mg/kg, iv, d 1, 4) and 0.35 ± 0.03 g in the series with sarcoma 180 (20 mg/kg, iv d 1). Besides, the inhibition in vivo at 10 mg/kg in the series with sarcoma 180 (Mus musculus, Sarcoma-180, iv, read-out: Inhibition rate %, 10 mg/kg, iv, d 1, 4) was 46.9%. The inhibition in vivo at 20 mg/kg in the series with sarcoma 180 (Mus musculus, Sarcoma-180, iv, read-out: Inhibition rate %, 20 mg/kg, iv d 1) was 78.1%. Further, the IC50 worked out at 34.8 nM in series [2] (72 h, read-out: Hela (IC50, nM)) and 75.3 nM in series [4] (A549, 72 h, read-out: A549 (IC50, nM)). Further, the “T/C (%)” value is 74.0% in series [3] (1.5 mg/kg iv once at d0), 62.9* % in series [3] (3 mg/kg iv once at d0) and 31.5* % in series [3] (6 mg/kg iv once at d0). Further, the results for the “Body weight (g) dn” value in series [3] (setting [6]), in series [3] (setting [7]) and in series [3] (setting [8]) were 21.3 g, 20.4 g and 18.8 g, respectively. The “TV (mm^3) x ± SD dn” value in series [3] (setting [6]) is recorded as 2080 ± 542 mm^3; in series [3] (setting [7]), 1545 ± 410 mm^3; in series [3] (setting [8]), 808 ± 336 mm^3. Also, the “RTV x ± SD” value in series [3] (1.5 mg/kg iv once at d0, relative tumor volume) is on record as 8.18 ± 2.20; in series [3] (3 mg/kg iv once at d0, relative tumor volume), 6.96 ± 1.79; in series [3] (6 mg/kg iv once at d0, relative tumor volume), 3.48 ± 1.83. The “efficacy against A549 xenografts (in words)” value is listed as “significantly inhibited” in series [3] (setting [9]); “comparable to or even a little better than vinorelbine tartrate” in series [3] (BM48 tartrate once at d0, vinorelbine tartrate twice at d0 and d4, listed as BM48 tartrate). In addition, the “toxicity in the mice (in words)” value in series [3] (setting [9]) is “appeared to show toxicity after the administration of BM48, but could recover well later”. Further, the “cell-based efficacy, inhibition of tumor cell proliferation (in words)” value in series [4] was “excellent cell-based efficacy”.
For `CCC1=C[C@@H]2CN(C1)Cc1c([nH]c3ccccc13)[C@@](C(=O)OC)(c1cc3c(cc1OC)N(C)[C@H]1[C@@](O)(C(=O)OC)[C@H](OC(C)=O)[C@]4(CC)C=CCN5CC[C@]31[C@@H]54)C2` [Vinorelbine tartrate, vinorelbine tartrate, reference compound], in the series with sarcoma 180 (10 mg/kg, iv, d 1, 4), the “Average weight (g) At sacrifice” value was determined as 27.5 g and the “Tumor Weight (g) X ± SD” value was 0.60 ± 0.23 g. In addition, in the series with sarcoma 180 (Mus musculus, Sarcoma-180, iv, read-out: Inhibition rate %), the inhibition in vivo at 10 mg/kg was determined as 62.5%. The IC50 in series [2] (SRB assay, 72 hours incubation, ditartrate of all compounds used, read-out: Hela (IC50)) amounted to 9.1 nM. The “toxicity in the mice (in words)” value in series [3] (setting [9]) was “higher toxicity”. In addition, in series [3] (mouse, in vivo), the “RTV x ± SD” value is on record as 2.66 ± 1.18, the “T/C (%)” value was 24.1* %, the “TV (mm^3) x ± SD dn” value came to 550 ± 206 mm^3 and the “efficacy against A549 xenografts (in words)” value is reported as “a little better efficacy than BM48 tartrate”. The IC50 in series [4] (A549, SRB assay, 72 hours incubation, ditartrate of all compounds used, read-out: A549 (IC50)) was 23.1 nM. Also, in series [5], the “Body weight (g) dn” value stood at 16.4 g.
